Test results from the supplement of paper PMC10307832.

Legend:
Experiment in all cases: relative viability (nuclei count vs DMSO), 5 days (fraction); higher = more cells survive
[1] = compound: C1=CC2=C(C=CC(=C2)C=C3C(=O)NC(=NCC4=CC=CS4)S3)N=C1 [RO-3306] + COc1cccc2cc(-c3nc([C@H]4CC[C@H](C(=O)O)CC4)n4ncnc(N)c34)[nH]c12 [OSI-027] (partner 0.5 µM)
How it was run: (§1)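 The day after seeding in 1536-well plates, lung cancer cell lines were treated by pin tool with a single drug, or with a fixed anchor-drug dose together with five library-drug doses (not always all listed) in √10 steps. After 5 days, a combined fix-and-stain solution (final 0.05% Triton X-100, 1% formaldehyde, 1 ug/ml Hoechst) was added. Nuclei counted on 4× images gave relative viability as treated counts over vehicle counts, reported as the median of duplicate plates.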

[2] = compound: C1=CC2=C(C=CC(=C2)C=C3C(=O)NC(=NCC4=CC=CS4)S3)N=C1 [RO-3306] + CC(=O)Nc1cccc(-n2c(=O)n(C3CC3)c(=O)c3c(Nc4ccc(I)cc4F)n(C)c(=O)c(C)c32)c1 [Trametinib] (partner 0.02 µM)
How it was run: as §1

[3] = compound: C1=CC2=C(C=CC(=C2)C=C3C(=O)NC(=NCC4=CC=CS4)S3)N=C1 [RO-3306] + Nc1ncn([C@H]2C[C@H](O)[C@@H](CO)O2)c(=O)n1 [Decitabine] (partner 2 µM)
How it was run: as §1

[4] = compound: C1=CC2=C(C=CC(=C2)C=C3C(=O)NC(=NCC4=CC=CS4)S3)N=C1 [RO-3306] + CCNC(=O)c1noc(-c2cc(C(C)C)c(O)cc2O)c1-c1ccc(CN2CCOCC2)cc1 [Luminespib] (partner 0.01 µM)
How it was run: as §1

| Cell Line | relative viability ([1]; first compound 0.01 µM) | relative viability ([1]; first compound 0.03162 µM) | relative viability ([1]; first compound 0.1 µM) | relative viability ([1]; first compound 0.3162 µM) | relative viability ([1]; first compound 1 µM) | relative viability ([2]; first compound 0.01 µM) | relative viability ([2]; first compound 0.03162 µM) | relative viability ([2]; first compound 0.1 µM) | relative viability ([2]; first compound 0.3162 µM) | relative viability ([2]; first compound 1 µM) | relative viability ([3]; first compound 0.01 µM) | relative viability ([3]; first compound 0.03162 µM) | relative viability ([3]; first compound 0.1 µM) | relative viability ([3]; first compound 0.3162 µM) | relative viability ([3]; first compound 1 µM) | relative viability ([4]; first compound 0.01 µM) | relative viability ([4]; first compound 0.03162 µM) | relative viability ([4]; first compound 0.1 µM) | relative viability ([4]; first compound 0.3162 µM) | relative viability ([4]; first compound 1 µM) |
| --- | --- | --- | --- | --- | --- | --- | --- | --- | --- | --- | --- | --- | --- | --- | --- | --- | --- | --- | --- | --- |
| NCI-H2170 | 0.819 | 0.702 | 0.726 | 0.655 | 0.697 | 1.18 | 0.792 | 0.886 | 0.96 | 0.958 | 0.473 | 0.433 | 0.471 | 0.458 | 0.486 | 0.485 | 0.803 | 0.419 | 0.669 | 0.639 |
| NCI-H2342 | 0.664 | 0.559 | 0.616 | 0.575 | 0.596 | 0.988 | 0.676 | 0.749 | 0.843 | 0.732 | 0.746 | 0.654 | 0.755 | 0.773 | 0.673 | 0.742 | 0.627 | 0.727 | 0.759 | 0.73 |
| NCI-H2347 | 0.449 | 0.404 | 0.421 | 0.249 | 0.356 | 0.283 | 0.271 | 0.262 | 0.264 | 0.274 | 0.643 | 0.597 | 0.592 | 0.574 | 0.645 | 1.03 | 0.43 | 0.825 | 0.253 | 0.575 |
| NCI-H2405 | 0.609 | 0.591 | 0.629 | 0.614 | 0.626 | 0.637 | 0.557 | 0.636 | 0.63 | 0.613 | 0.703 | 0.751 | 0.803 | 0.685 | 0.727 | 0.753 | 0.705 | 0.849 | 0.607 | 0.7 |
| NCI-H3122 | 1.11 | 0.849 | 1.03 | 1.03 | 1.01 | 0.241 | 0.223 | 0.26 | 0.237 | 0.227 | 0.406 | 0.345 | 0.379 | 0.461 | 0.42 | 0.113 | 0.108 | 0.0505 | 0.101 | 0.122 |
| PC-3 [JPC-3] | 0.851 | 0.718 | 0.787 | 0.681 | 0.741 | 0.715 | 0.697 | 0.704 | 0.694 | 0.65 | 0.84 | 0.777 | 0.82 | 0.802 | 0.817 | 0.642 | 0.638 | 0.778 | 0.667 | 0.864 |
| PC-14 | 0.895 | 0.609 | 0.76 | 1.37 | 0.86 | 0.827 | 0.607 | 0.614 | 0.78 | 0.766 | 0.196 | 0.209 | 0.222 | 0.277 | 0.244 | 0.251 | 0.147 | 0.161 | 0.139 | 0.15 |
| RERF-LC-KJ | 0.632 | 0.53 | 0.556 | 0.598 | 0.556 | 0.914 | 0.907 | 0.862 | 0.881 | 0.935 | 0.763 | 0.715 | 0.689 | 0.75 | 0.665 | 1.15 | 1.41 | 1.17 | 1.45 | 0.99 |
| SK-LU-1 | 0.283 | 0.285 | 0.325 | 0.314 | 0.339 | 0.463 | 0.412 | 0.501 | 0.506 | 0.309 | 0.657 | 0.537 | 0.597 | 0.643 | 0.56 | 0.184 | 0.194 | 0.179 | 0.202 | 0.166 |
| SK-MES-1 | 0.657 | 0.558 | 0.693 | 0.794 | 0.612 | 0.519 | 0.537 | 0.483 | 0.491 | 0.562 | 0.341 | 0.406 | 0.327 | 0.352 | 0.371 | 0.708 | 0.973 | 0.705 | 0.605 | 0.968 |
| SW 900 | 0.486 | 0.427 | 0.467 | 0.551 | 0.266 | 0.885 | 0.742 | 0.752 | 0.663 | 0.804 | 0.45 | 0.425 | 0.42 | 0.404 | 0.549 | 0.148 | 0.181 | 0.172 | 0.175 | 0.183 |
| SW 1573 | 0.683 |  | 0.603 | 0.607 | 0.578 | 0.636 | 0.428 | 0.539 | 0.604 | 0.573 | 0.537 | 0.461 | 0.401 | 0.507 | 0.45 | 0.205 | 0.218 | 0.198 | 0.302 | 0.217 |
